Measured values: patent US20120283216A1, “FUNGICIDAL 2-(BICYCLIC ARYLOXY)CARBOXAMIDES” (priority 2009, published 2012)

What was measured:
Assay type in all cases: in vivo
[1] = tested on: Botrytis cinerea; assay: Test C: tomato botrytis, preventive spray on tomato seedlings, visual disease rating; conditions: preventive spray at 40 ppm, rated after 48 h + 3 days; for pest or weed control at 40 ppm: Botrytis cinerea, 120 h, read-out: Test C disease control rating (100 = 100% disease control, 0 = no disease control relative to the controls)
Description: General protocol for preparing test suspensions for Tests A-C: the test compounds were first dissolved in acetone in an amount equal to 11% of the final volume and then suspended at the desired concentration (in ppm) in acetone and purified water (50/50 mix by volume) containing 250 ppm of the surfactant Trem® 014 (polyhydric alcohol esters). The resulting test suspensions were then used in Tests A-C. Spraying a 40 ppm test suspension to the point of run-off on the test plants was the equivalent of a rate of 800 g/ha.
The test suspension was sprayed to the point of run-off on tomato seedlings. The following day the seedlings were inoculated with a spore suspension of Botrytis cinerea (the causal agent of tomato botrytis) and incubated in saturated atmosphere at 20° C. for 48 h, and then moved to a growth chamber at 27° C. for 3 additional days, after which time disease ratings were visually made.
Results for Tests A-C are given in Table A. In the Table, a rating of 100 indicates 100% disease control and a rating of 0 indicates no disease control (relative to the controls). A dash (-) indicates no test results. All results are from applications of 40 ppm.

[2] = tested on: Blumeria graminis f. sp. tritici; assay: Test A: wheat powdery mildew, preventive spray on wheat seedlings, visual disease rating; conditions: preventive spray at 40 ppm, rated 8 days after inoculation; for pest or weed control at 40 ppm: Blumeria graminis, 192 h, read-out: Test A disease control rating (100 = 100% disease control, 0 = no disease control relative to the controls)
Description: General protocol for preparing test suspensions for Tests A-C: the test compounds were first dissolved in acetone in an amount equal to 11% of the final volume and then suspended at the desired concentration (in ppm) in acetone and purified water (50/50 mix by volume) containing 250 ppm of the surfactant Trem® 014 (polyhydric alcohol esters). The resulting test suspensions were then used in Tests A-C. Spraying a 40 ppm test suspension to the point of run-off on the test plants was the equivalent of a rate of 800 g/ha. The test suspension was sprayed to the point of run-off on wheat seedlings. The following day the seedlings were inoculated with a spore dust of Blumeria graminis f. sp. tritici, (the causal agent of wheat powdery mildew) and incubated in a growth chamber at 20° C. for 8 days, after which time disease ratings were visually made. Results for Tests A-C are given in Table A. In the Table, a rating of 100 indicates 100% disease control and a rating of 0 indicates no disease control (relative to the controls). A dash (-) indicates no test results. All results are from applications of 40 ppm.

[3] = tested on: Septoria tritici; assay: Test B: wheat leaf blotch, preventive spray on wheat seedlings, visual disease rating; conditions: preventive spray at 40 ppm, rated after 48 h + 19 days; for pest or weed control at 40 ppm: Zymoseptoria tritici, 504 h, read-out: Test B disease control rating (100 = 100% disease control, 0 = no disease control relative to the controls)
Description: General protocol for preparing test suspensions for Tests A-C: the test compounds were first dissolved in acetone in an amount equal to 11% of the final volume and then suspended at the desired concentration (in ppm) in acetone and purified water (50/50 mix by volume) containing 250 ppm of the surfactant Trem® 014 (polyhydric alcohol esters). The resulting test suspensions were then used in Tests A-C. Spraying a 40 ppm test suspension to the point of run-off on the test plants was the equivalent of a rate of 800 g/ha. The test suspension was sprayed to the point of run-off on wheat seedlings. The following day the seedlings were inoculated with a spore suspension of Septoria tritici (the causal agent of wheat leaf blotch) and incubated in a saturated atmosphere at 20° C. for 48 h, and then moved to a growth chamber at 20° C. for 19 days, after which time disease ratings were visually made. Results for Tests A-C are given in Table A. In the Table, a rating of 100 indicates 100% disease control and a rating of 0 indicates no disease control (relative to the controls). A dash (-) indicates no test results. All results are from applications of 40 ppm.

COCC(C)(C)NC(=O)C(OC)Oc1ccc2ccc(Br)cc2c1 (stereo not shown) [Compound 90, 2-[(7-bromo-2-naphthalenyl)oxy]-2-methoxy-N-(2-methoxy-1,1-dimethylethyl)acetamide]
pest or weed control at 40 ppm [1]: 100%
pest or weed control at 40 ppm [2]: 100%
pest or weed control at 40 ppm [3]: 100%

CCOCC(C)(C)NC(=O)C(CC)Oc1cnc2ccc(Cl)cc2c1 (stereo not shown) [Compound 50]
Test C disease control rating (100 = 100% disease control, 0 = no disease control relative to the controls) [1]: 90%
Test A disease control rating (100 = 100% disease control, 0 = no disease control relative to the controls) [2]: 84%
Test B disease control rating (100 = 100% disease control, 0 = no disease control relative to the controls) [3]: 98%

CCC(Oc1ccc2ccc(Br)cc2c1)C(=O)NC(C)(C)CSC(C)=O (stereo not shown) [Compound 28]
Test C disease control rating (100 = 100% disease control, 0 = no disease control relative to the controls) [1]: 99%
Test A disease control rating (100 = 100% disease control, 0 = no disease control relative to the controls) [2]: 91%
Test B disease control rating (100 = 100% disease control, 0 = no disease control relative to the controls) [3]: 99%

CCCOc1ccc2ccc(OC(CC)C(=O)NC(C)(C)C)cc2c1 (stereo not shown) [Compound 128]
Test C disease control rating (100 = 100% disease control, 0 = no disease control relative to the controls) [1]: 99%
Test A disease control rating (100 = 100% disease control, 0 = no disease control relative to the controls) [2]: 98%
Test B disease control rating (100 = 100% disease control, 0 = no disease control relative to the controls) [3]: 100%

CCC(Oc1ccc2ccc(Br)cc2c1)C(=O)NC(C)(C)COCOC (stereo not shown) [Compound 20, 2-[(7-bromo-2-naphthalenyl)oxy]-N-[2-(methoxymethoxy)-1,1-dimethylethyl]butanamide]
pest or weed control at 40 ppm [1]: 98%
pest or weed control at 40 ppm [2]: 98%
pest or weed control at 40 ppm [3]: 99%

CCC(Oc1cnc2ccc(OC)cc2c1)C(=O)NC(C)(C)COC (stereo not shown) [Compound 146]
Test C disease control rating (100 = 100% disease control, 0 = no disease control relative to the controls) [1]: 99%
Test A disease control rating (100 = 100% disease control, 0 = no disease control relative to the controls) [2]: 0%
Test B disease control rating (100 = 100% disease control, 0 = no disease control relative to the controls) [3]: 100%

COCC(C)(C)NC(=O)C(C)Oc1ccc2ccc(Br)cc2c1 (stereo not shown) [Compound 24, 2-[(7-bromo-2-naphthalenyl)oxy]-N-(2-methoxy-1,1-dimethylethyl)propanamide]
pest or weed control at 40 ppm [1]: 98%
pest or weed control at 40 ppm [2]: 100%
pest or weed control at 40 ppm [3]: 100%

C#Cc1ccc2ccc(OC(CC)C(=O)NC(C)(C)COC)cc2c1 (stereo not shown) [Compound 97, 2-[(7-ethynyl-2-naphthalenyl)oxy]-N-(2-methoxy-1,1-dimethylethyl)-butanamide]
pest or weed control at 40 ppm [1]: 99%
pest or weed control at 40 ppm [2]: 100%
pest or weed control at 40 ppm [3]: 100%

COc1ccc2ccc(OC(OC)C(=O)NC(C)(C)C#N)cc2c1 (stereo not shown) [Compound 81]
Test C disease control rating (100 = 100% disease control, 0 = no disease control relative to the controls) [1]: 100%
Test A disease control rating (100 = 100% disease control, 0 = no disease control relative to the controls) [2]: 0%
Test B disease control rating (100 = 100% disease control, 0 = no disease control relative to the controls) [3]: 99%

CC#Cc1ccc2ccc(OC(OC)C(=O)NC(C)(C)COC)cc2c1 (stereo not shown) [Compound 108, 2-methoxy-N-(2-methoxy-1,1-dimethylethyl)-2-[[7-(1-propyn-1-yl)-2-naphthalenyl]oxy]acetamide]
pest or weed control at 40 ppm [1]: 48%
pest or weed control at 40 ppm [2]: 100%
pest or weed control at 40 ppm [3]: 100%

CCOC(Oc1ccc2ccc(OC)cc2c1)C(=O)NC(C)(C)C#N (stereo not shown) [Compound 116]
Test C disease control rating (100 = 100% disease control, 0 = no disease control relative to the controls) [1]: 99%
Test A disease control rating (100 = 100% disease control, 0 = no disease control relative to the controls) [2]: 13%
Test B disease control rating (100 = 100% disease control, 0 = no disease control relative to the controls) [3]: 99%

CCOc1ccc2ccc(OC(OCC)C(=O)NC(C)(C)C)cc2c1 (stereo not shown) [Compound 121]
pest or weed control at 40 ppm [1]: 99%
pest or weed control at 40 ppm [2]: 29%
pest or weed control at 40 ppm [3]: 100%

COCC(C)(C)NC(=O)C(OC)Oc1cnc2ccc(I)cc2c1 (stereo not shown) [Compound 65]
Test C disease control rating (100 = 100% disease control, 0 = no disease control relative to the controls) [1]: 100%
Test A disease control rating (100 = 100% disease control, 0 = no disease control relative to the controls) [2]: 81%
Test B disease control rating (100 = 100% disease control, 0 = no disease control relative to the controls) [3]: 99%

CCC(Oc1cnc2ccc(Cl)cc2c1)C(=O)NC(C)(C)CO (stereo not shown) [Compound 42]
Test C disease control rating (100 = 100% disease control, 0 = no disease control relative to the controls) [1]: 0%
Test A disease control rating (100 = 100% disease control, 0 = no disease control relative to the controls) [2]: 0%
Test B disease control rating (100 = 100% disease control, 0 = no disease control relative to the controls) [3]: 0%

CCC(Oc1ccc2ccc(Br)cc2c1)C(=O)NC(C)(C)C=O (stereo not shown) [Compound 17]
Test C disease control rating (100 = 100% disease control, 0 = no disease control relative to the controls) [1]: 99%
Test A disease control rating (100 = 100% disease control, 0 = no disease control relative to the controls) [2]: 89%
Test B disease control rating (100 = 100% disease control, 0 = no disease control relative to the controls) [3]: 100%

CCC(Oc1cnc2ccc(I)cc2c1)C(=O)NC(C)(C)COC (stereo not shown) [Compound 53]
Test C disease control rating (100 = 100% disease control, 0 = no disease control relative to the controls) [1]: 99%
Test A disease control rating (100 = 100% disease control, 0 = no disease control relative to the controls) [2]: 99%
Test B disease control rating (100 = 100% disease control, 0 = no disease control relative to the controls) [3]: 100%

CCC(Oc1ccc2ccc(Br)cc2c1)C(=O)NC(C)(C)CN (stereo not shown) [Compound 14]
Test C disease control rating (100 = 100% disease control, 0 = no disease control relative to the controls) [1]: 99%
Test A disease control rating (100 = 100% disease control, 0 = no disease control relative to the controls) [2]: 90%
Test B disease control rating (100 = 100% disease control, 0 = no disease control relative to the controls) [3]: 99%

C#Cc1ccc2ncc(OC(OC)C(=O)NC(C)(C)COC)cc2c1 (stereo not shown) [Compound 162]
Test C disease control rating (100 = 100% disease control, 0 = no disease control relative to the controls) [1]: 100%
Test A disease control rating (100 = 100% disease control, 0 = no disease control relative to the controls) [2]: 100%
Test B disease control rating (100 = 100% disease control, 0 = no disease control relative to the controls) [3]: 100%

C#CC(C)(C)NC(=O)C(CC)Oc1ccc2ccc(C(F)F)cc2c1 (stereo not shown) [Compound 78]
Test C disease control rating (100 = 100% disease control, 0 = no disease control relative to the controls) [1]: 99%
Test A disease control rating (100 = 100% disease control, 0 = no disease control relative to the controls) [2]: 81%
Test B disease control rating (100 = 100% disease control, 0 = no disease control relative to the controls) [3]: 88%

C#CC(C)(C)NC(=O)C(OC)Oc1ccc2ccc(OCC)cc2c1 (stereo not shown) [Compound 69, N-(1,1-dimethyl-2-propyn-1-yl)-2-[(7-ethoxy-2-naphthalenyl)oxy]-2-methoxyacetamide]
pest or weed control at 40 ppm [1]: 100%
pest or weed control at 40 ppm [2]: 100%
pest or weed control at 40 ppm [3]: 100%

COC(Oc1cnc2ccc(C#C[Si](C)(C)C)cc2c1)C(=O)NC(C)(C)C (stereo not shown) [Compound 161]
Test C disease control rating (100 = 100% disease control, 0 = no disease control relative to the controls) [1]: 99%
Test A disease control rating (100 = 100% disease control, 0 = no disease control relative to the controls) [2]: 0%
Test B disease control rating (100 = 100% disease control, 0 = no disease control relative to the controls) [3]: 100%

CCOCC(C)(C)NC(=O)C(CC)Oc1ccc2ccc(CC)cc2c1 (stereo not shown) [Compound 139]
Test C disease control rating (100 = 100% disease control, 0 = no disease control relative to the controls) [1]: 96%
Test A disease control rating (100 = 100% disease control, 0 = no disease control relative to the controls) [2]: 97%
Test B disease control rating (100 = 100% disease control, 0 = no disease control relative to the controls) [3]: 47%

COC(Oc1ccc2ccc(Br)cc2c1)C(=O)NC(C)(C)CO (stereo not shown) [Compound 98]
Test C disease control rating (100 = 100% disease control, 0 = no disease control relative to the controls) [1]: 99%
Test A disease control rating (100 = 100% disease control, 0 = no disease control relative to the controls) [2]: 64%

C#Cc1ccc2ncc(OC(CC)C(=O)NC(C)(C)COC)cc2c1 (stereo not shown) [Compound 148]
Test C disease control rating (100 = 100% disease control, 0 = no disease control relative to the controls) [1]: 100%
Test A disease control rating (100 = 100% disease control, 0 = no disease control relative to the controls) [2]: 100%

C#CC(C)(C)NC(=O)C(CC)Oc1ccc2ccc(Br)cc2c1 (stereo not shown) [Compound 31]
Test C disease control rating (100 = 100% disease control, 0 = no disease control relative to the controls) [1]: 100%
Test A disease control rating (100 = 100% disease control, 0 = no disease control relative to the controls) [2]: 100%

COC(Oc1ccc2ccc(Br)cc2c1)C(=O)NC(C)(C)C (stereo not shown) [Compound 100]
pest or weed control at 40 ppm [1]: 99%
pest or weed control at 40 ppm [2]: 100%

COCOCC(C)(C)NC(=O)C(OC)Oc1ccc2ccc(Br)cc2c1 (stereo not shown) [Compound 99]
Test C disease control rating (100 = 100% disease control, 0 = no disease control relative to the controls) [1]: 100%
Test A disease control rating (100 = 100% disease control, 0 = no disease control relative to the controls) [2]: 96%
